Test results from a melting point compilation (Tetko et al.).

| SMILES | melting point [°C] |
| --- | --- |
| CC1(Br)CS(=O)(=O)CC1Br (centres undefined) | 126 to 128 |
| Cc1c(C(=O)O)[nH]c2c1C(=O)CC(C)(C)C2 | 206 to 208 |
| NC(=O)CC1CCCC1 | 149 to 151 |
| O=C(O)c1ccc(Cl)c(N2CCCS2(=O)=O)c1 | 212 to 214 |
| CC(C)(C)OC(=O)N[C@H]1C[C@H](N)C1 | 60 to 62 |
| O=C(O)c1cc(Cl)cc(Br)c1O | 214 to 216 |
| COC(=O)c1cc(C(C)(C)C)n[nH]1 | 172 to 174 |
| CC(=O)Nc1nc(C)c(S(=O)(=O)Cl)s1 | 158 to 160 |
| Cc1ccc2oc(-c3nnc(S)n3N)cc2c1 | 228 to 230 |
| O=C1COc2cccc(O)c2N1 | 247 to 249 |
| COc1ccc(C=O)c2cc(C(=O)O)oc12 | 264 to 266 |
| O=C(CCl)c1cc([N+](=O)[O-])c[nH]1 | 199 to 201 |
| CC(C)(C)C(=O)Nc1ccc(F)c(C(=O)O)c1 | 179 to 181 |
| COCCOc1ccc(C(=O)O)cc1 | 151 to 153 |
| O=S(=O)(Cl)c1ccc(OCC(F)(F)F)nc1 | 55 to 57 |
| COc1ccc(-n2c(C)c(C)c3c(N)ncnc32)cc1 | 231 to 233 |
| Cc1csc(N2CCC(=O)CC2)n1 | 59 to 61 |
| COc1ccc(C(C)=CC(=O)O)cc1 | 108 to 110 |
| Cn1c(=O)c2cc(N)cnc2n(C)c1=O | 219 to 221 |
| CCOC(=O)c1c(N)sc2c1CCNC2 | 121 to 123 |
| CC(C)(C)OC(=O)Nc1cscn1 | 153 to 155 |

| SMILES | melting point [°C] |
| --- | --- |
| CCC1(C(=O)O)CCOCC1 | 83 to 85 |
| Cc1ccc(S(=O)(=O)OC2CCS(=O)(=O)C2)cc1 (centres undefined) | 80 to 82 |
| Nc1ccc(-n2ccnc2)cc1C(F)(F)F | 109 to 111 |
| Cc1cccn2c(=O)c(C(=O)O)cnc12 | 205 to 207 |
| NCc1cccnc1O | 89 to 91 |
| O=C(O)CNC(=O)c1ccc(F)cc1 | 169 to 171 |
| Cc1ccc(NC(=O)C(=O)NN)cc1C | 182 to 184 |
| CC(C)(C)OC(=O)N1CCC(OC(=O)c2cccc(N)c2)CC1 | 124 to 126 |
| CC(C)Nc1ccccn1 | 41 to 43 |
| Sc1nnc(N2CCCCC2)s1 | 165 to 167 |
| O=C(CCl)Nc1ccc2c(c1)CCC2 | 112 to 114 |
| O=C1CCOc2c(Cl)ccc(Cl)c21 | 67 to 69 |
| O=C(O)C1CCN(C(=O)C2CC2)CC1 | 211 to 213 |
| Cc1cc(Br)cc2cc(C(=O)O)oc12 | 222 to 224 |
| CNC(=O)C1Cc2ccccc2CN1 (centres undefined) | 97 to 99 |
| Cc1nc2ccc(C#N)cc2s1 | 129 to 131 |
| CNc1nc(C(=O)O)cs1 | 204 to 206 |
| Cc1cc(N)n(-c2ccc(C(F)(F)F)cn2)n1 | 119 to 121 |
| COc1ccc(C)cc1NC(=O)CCl | 73 to 75 |
| N#Cc1ccc2c(c1)CCO2 | 64 to 66 |
| CC(=O)N1CCC(S(=O)(=O)Cl)CC1 | 95 to 97 |

| SMILES | melting point [°C] |
| --- | --- |
| Nc1ccc(NC(=O)C2CCCO2)cc1C(F)(F)F (centres undefined) | 64 to 66 |
| Cc1ccc(N2CCC(N)C2=O)cc1 (centres undefined) | 97 to 99 |
| COc1ccnc(Cl)n1 | 57 to 58 |
| COc1csc(C(=O)O)c1 | 167 to 169 |
| O=C(C=NO)Nc1ccc2c(c1)OCCO2 | 130 to 132 |
| OCc1cccc(F)c1Cl | 34 to 36 |
| CC(C)(C)NS(=O)(=O)CC(=O)O | 93 to 95 |
| Cc1nn(-c2ncccn2)c(N)c1Br | 159 to 161 |
| Nc1cc(C2CCOCC2)no1 | 159 to 161 |
| COc1ccc(C(=O)C(C)Br)cc1 (centres undefined) | 66 to 68 |
| O=C(O)CNC(=O)C1CCCCC1 | 153 to 157 |
| O=C1CC(N2CCCC2)C(=O)N1 (centres undefined) | 123 to 125 |
| CCCc1c(C(=O)O)cnn1C1CCCC1 | 113 to 115 |
| C=CCNc1ncc(C(=O)OC)s1 | 109 to 111 |
| O=C1CC(C(=O)O)CN1 (centres undefined) | 129 to 131 |
| O=C(CCl)NCc1ccccc1OC(F)(F)F | 66 to 68 |
| O=C(CCCl)Nc1ccc2c(c1)OCO2 | 142 to 144 |
| Cc1nc(CO)c(C)s1 | 44 to 46 |
| Cc1oncc1C(=O)Nc1ccc(N)c(C(F)(F)F)c1 | 196 to 198 |
| NC(=O)Cc1ccc(Br)cc1 | 194 to 196 |
| O=C(O)Cc1c[nH]c2ccc([N+](=O)[O-])cc12 | 189 to 191 |

| SMILES | melting point [°C] |
| --- | --- |
| Cn1ncc2c(N)ncnc21 | 264 to 266 |
| CC(C)(C)OC(=O)NC1(C#N)CCCC1 | 106 to 108 |
| OC1CCCC1N1CCN(c2cccc(Cl)c2)CC1 (centres undefined) | 99 to 101 |
| CNC(C)C(=O)O (centres undefined) | 268 to 270 |
| COc1ccc(C(=O)NCC(=O)O)cc1[N+](=O)[O-] | 98 to 100 |
| CC1CCc2c(sc3nc(C(C)Cl)[nH]c(=O)c23)C1 (centres undefined) | 248 to 250 |
| O=[N+]([O-])c1n[nH]cc1S(=O)(=O)Cl | 154 to 156 |
| N#Cc1ccc(OCC(=O)O)cc1 | 177 to 179 |
| COC(=O)CCCc1nnc(N)s1 | 149 to 151 |
| O=C(CCl)NCCc1cccs1 | < 17 |
| Oc1nc(S)nc2c1CCC2 | 288 to 290 |
| Cc1nn(C)c(C)c1OCC(=O)O | 172 to 174 |
| CCCC1CCc2[nH]c(=O)sc2C1 (centres undefined) | 119 to 121 |
| CN(C)c1ncnc(Cl)c1N | 114 to 116 |
| O=C(O)c1c(O)cc(=O)n2c1CCC2 | 236 to 238 |
| Nc1ccc(S(=O)(=O)N2CCCCC2)cn1 | 171 to 173 |
| CCN1C(=O)CNC1=O | 100 to 102 |
| Cc1cc(N)n(C2CCOC2)n1 (centres undefined) | 91 to 93 |
| COc1ccc2nc(C)cc(C(=O)O)c2c1 | 279 to 281 |

Results, then the molecule that gave them:

| melting point [°C] | SMILES |
| --- | --- |
| 209 to 211 | O=C(O)c1ccc(N2CCc3ccccc3C2)cc1 |
| 130 to 132 | O=C(O)CNS(=O)(=O)c1ccc(N2CCCC2=O)cc1 |
| 159 to 161 | Cn1c(C(=O)O)ccc1-c1ccc(F)cc1 |
| 111 to 113 | OC(Cn1cncn1)c1ccc(Cl)cc1 (centres undefined) |
| 150 to 152 | O=C(O)CNS(=O)(=O)c1ccc(Cl)c([N+](=O)[O-])c1 |
| 306 to 308 | O=C(O)c1cccc(NC(=O)c2ccc(Br)cc2)c1 |
| 159 to 161 | CCc1ccccc1Nc1nnc(S)s1 |
| 100 to 102 | CCc1ccc(C(=O)O)cc1CC |
| 220 to 222 | CNc1nc(S)nc2ccccc12 |
| 93 to 95 | Cc1c(NC(=S)Nc2c(C)n(C)n(-c3ccccc3)c2=O)c(=O)n(-c2ccccc2)n1C |
| 228 to 230 | O=C(O)C(NCc1ccccc1)C1CC1 (centres undefined) |
| 98 to 100 | CCC(=O)c1ccc(Cl)c(Cl)c1O |
| 87 to 89 | O=C(O)c1ccccc1OCc1cccs1 |
| 238 to 240 | CC(C)CNS(=O)(=O)c1ccc(C(=O)O)cc1 |
| 201 to 203 | CCOC(=O)c1cnn(-c2ccc(C(=O)O)cc2)c1C |
| 86 to 88 | O=[N+]([O-])c1ccc(Br)c(S(=O)(=O)Cl)c1 |
| 102 to 104 | CCN(c1ccccc1)S(=O)(=O)c1cc(N)ccc1Cl |
| 139 to 141 | COCC(C)n1c(SCC(=O)O)nnc1-c1ccccc1 (centres undefined) |
| 152 to 154 | O=C(O)CCc1nc(-c2ccc(Cl)cc2)no1 |
| 164 to 166 | CC(O)c1ccc(NC(=O)c2ccccc2)cc1 (centres undefined) |
| 81 to 83 | Cc1ccc(COc2cccc(N)c2)cc1 |

| melting point [°C] | SMILES |
| --- | --- |
| 121 to 123 | Cc1nnnn1-c1cccc(N)c1 |
| 150 to 152 | Cc1ccc(Cl)cc1C(N)=O |
| 92 to 94 | Nc1ccccc1C(=O)NCCO |
| 165 to 167 | O=C(O)CS(=O)(=O)CC(=O)Nc1cccc(Br)c1 |
| 192 to 194 | CCCCc1ccc(NS(=O)(=O)c2ccc(C)c(C(=O)O)c2)cc1 |
| 159 to 161 | Nc1nnc(SCc2ccccc2)s1 |
| 131 to 133 | COc1ccc(Cl)cc1CC(=O)O |
| 192 to 194 | O=C(O)/C(=C\c1cccc(Cl)c1)c1cccs1 |
| 118 to 120 | O=Cc1cc2ccccc2nc1N1CCCCC1 |
| 227 to 229 | Cc1[nH]c2ccccc2c1C(=O)CCl |
| 188 to 190 | Clc1ccc(-c2cc3ncnc(Cl)c3s2)cc1 |
| 189 to 191 | Cc1nc(C(=O)O)nn1-c1ccccc1Cl |
| 155 to 159 | Cn1c(SCC(=O)O)nc2ccccc21 |
| 223 to 225 | COC(=O)c1cc(=O)c2ccccc2[nH]1 |
| 181 to 183 | CCNS(=O)(=O)c1ccc(C)c(C(=O)O)c1 |
| 120 to 122 | Nc1ccc(NC(=O)c2ccco2)cc1C(F)(F)F |
| 144 to 146 | O=C(O)c1ccc(Oc2ccccc2Cl)cc1 |
| 66 to 68 | O=Cc1cnn(-c2ccccc2)n1 |
| 36 to 38 | CCCOC(=O)c1ccc(S(=O)(=O)Cl)cc1 |
| 103 to 105 | O=C(O)C(Oc1ccccc1)c1ccccc1 (centres undefined) |
| 208 to 210 | O=C(O)c1ccc(=O)n(-c2ccccc2)n1 |

| melting point [°C] | SMILES |
| --- | --- |
| 268 to 270 | Nc1cc(Br)c(S(N)(=O)=O)cc1[N+](=O)[O-] |
| 164 to 166 | O=C(O)c1sc(-c2ccccc2)cc1OCC(=O)N1CCCCC1 |
| 201 to 203 | CC(C)(C)CNC(=O)c1ccc(C(=O)O)cc1 |
| 163 to 165 | Nc1ccc2c(c1)C(=O)N(CC1CC1)C2=O |
| 179 to 181 | O=S(=O)(Cl)c1ccc(-n2cnnn2)cc1 |
| 139 to 141 | Cc1ncc(-c2ccccc2)cc1N |
| 115 to 117 | O=C(O)C(Nc1ccccc1)c1ccccc1F (centres undefined) |
| 81 to 83 | O=c1onc(-c2ccccc2)n1CC1CO1 (centres undefined) |
| 198 to 200 | Nc1ccc(-c2noc(=O)[nH]2)cc1 |
| 132 to 134 | COc1ccc(S(=O)(=O)Nc2ncc(Br)s2)cc1 |
| 99 to 101 | Nc1ncc(Cc2cccc(Cl)c2)s1 |
| 170 to 172 | O=C(NC(C(=O)O)c1ccccc1)OCC1c2ccccc2-c2ccccc21 (centres undefined) |
| 159 to 161 | Nc1cccc(CN2C(=O)CNC2=O)c1 |
| 198 to 200 | O=C(C(=O)c1ccc(Cl)cc1)c1ccc(Cl)cc1 |
| 53 to 55 | Clc1sc2ccccc2c1Cl |
| 43 to 45 | CCCc1[nH]c2ccccc2c1CC |
| 140 to 142 | Cc1nc2c3ccccc3nc(Cl)n2n1 |
| 59 to 61 | CCOC(=O)c1cnn(C)c1-c1ccccc1 |
| 70 to 72 | CSCc1nc(N)ccc1Cl |
| 109 to 112 | O=C(c1ccccc1)c1ccc(CBr)cc1 |
